Measurements reported in US11116767B2, “3,5-disubstituted pyrazoles useful as checkpoint kinase 1 (Chk1) inhibitors, and their preparations and applications” (PHARMAENGINE, INC., priority 2016, dated 2021).
Where two headings read alike, the source gives them in different places.

Tests used:
HT-29 = assay: Cancer cell growth inhibition assay (CellTiter-Glo), HT-29; type: cell-based, Human; settings: Homo sapiens, HT-29; 72 hours, cellular ATP content; read-out: HT-29 anti cell proliferation activity (grade)
Experimental: (§1) Human cancer cell lines were purchased from American Type Culture Collection (Manassas, Va.). The trypsinized cells were diluted to required volume at densities of 44,000 cells/ml. 90 ul cell slurry was dispensed per well in 96-well flat-bottomed plates with the recommended culture medium. The cells were incubated for 24 hours at 37° C. in 5% CO2 under humidified condition. The cells were then incubated with compounds at various concentrations for 72 hours in culture medium supplemented with 0.5% (v/v) FBS. Growth inhibition was assessed by assay of cellular ATP content using CellTiter-Glo reagent to each well. Luminesce was read on Envision. The inhibition rate (%)=(Max signal compound signal)/(Max signal Min signal)×100.

[1] = Pharmacokinetics study in rats, intravenous; type: in vivo, SD rats; settings: rat, IV; for AUC(0-inf) / AUC(0-t) / clearance / MRT / half-life / Vd: male, SD, plasma, 10 mg/kg; for AUC(0-inf): read-out: AUC0-inf; for AUC(0-t): read-out: AUC0-t; for clearance: read-out: CL (converted); for MRT: read-out: MRT; for half-life: read-out: t½ (converted); for Vd: iv; for half-life and exposure compared with LY2606368: 10 mg/kg (LY2606368 5 mg/kg)
Experimental: Compounds were formulated in 30% SEB-β-CD (Zhiyuan Bio-technology) with 1 molar equivalents of HCl (pH adjusted to 3-5). Male SD rats (280-350 g) were purchased from Medical Laboratory Animal Center of Guangdong. Three rats were used for each PK study. […] At various time points after compound administration, approximately 0.2˜0.3 mL of blood was collected by cutting the end of tail into tubes containing K2-EDTA. The plasma was separated via centrifugation and stored at −80° C. A PE Sciex API-3000 LC-MS/MS system (Applied Biosystems, Inc.) was used to analyze compound concentrations in plasma.
PK studies of ChK1 inhibitors were conducted in rats after intravenous administration at 10 mg/kg. […]. […]

Chk2 = molecular target: T1, Chk2 (Homo sapiens, UniProt O96017); assay: biochemical; settings: ADP-Glo; read-out: Chk2 in vitro enzyme activity (grade)
T1 construct: purchased Carna 02-162
T1 sequence (O96017 whole entry): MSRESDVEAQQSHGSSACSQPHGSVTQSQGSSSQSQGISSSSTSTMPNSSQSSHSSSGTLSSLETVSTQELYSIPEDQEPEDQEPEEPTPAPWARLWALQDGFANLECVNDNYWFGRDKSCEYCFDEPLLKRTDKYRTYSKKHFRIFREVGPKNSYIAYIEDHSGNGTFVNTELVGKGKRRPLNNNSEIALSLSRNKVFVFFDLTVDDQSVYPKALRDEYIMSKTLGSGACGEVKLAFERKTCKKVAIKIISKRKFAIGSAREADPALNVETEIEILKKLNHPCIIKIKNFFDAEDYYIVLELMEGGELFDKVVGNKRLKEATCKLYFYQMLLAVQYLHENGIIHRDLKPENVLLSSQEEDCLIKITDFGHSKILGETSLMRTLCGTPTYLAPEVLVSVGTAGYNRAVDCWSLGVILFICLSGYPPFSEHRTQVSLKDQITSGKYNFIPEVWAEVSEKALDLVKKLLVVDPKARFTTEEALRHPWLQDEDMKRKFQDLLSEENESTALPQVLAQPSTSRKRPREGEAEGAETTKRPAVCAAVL

Chk1 = molecular target: T2, Chk1 (Homo sapiens, UniProt O14757); assay: biochemical; settings: ADP-Glo; read-out: Chk1 in vitro enzyme activity (grade)
T2 construct: purchased BPS 40039
T2 sequence (O14757 1-476): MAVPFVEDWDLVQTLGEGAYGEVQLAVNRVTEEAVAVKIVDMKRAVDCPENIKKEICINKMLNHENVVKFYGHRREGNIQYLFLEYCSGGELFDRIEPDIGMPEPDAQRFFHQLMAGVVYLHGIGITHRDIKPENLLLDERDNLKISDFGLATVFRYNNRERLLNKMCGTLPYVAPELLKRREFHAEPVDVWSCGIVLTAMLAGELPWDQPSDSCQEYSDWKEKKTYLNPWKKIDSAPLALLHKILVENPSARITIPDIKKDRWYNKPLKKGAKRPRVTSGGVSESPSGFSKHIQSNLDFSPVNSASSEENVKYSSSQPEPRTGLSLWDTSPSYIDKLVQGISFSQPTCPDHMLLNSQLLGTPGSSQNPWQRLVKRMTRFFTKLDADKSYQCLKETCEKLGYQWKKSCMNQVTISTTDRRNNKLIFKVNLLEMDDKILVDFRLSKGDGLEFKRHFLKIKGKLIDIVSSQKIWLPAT

MDA-MB-231 = assay: Cancer cell growth inhibition assay (CellTiter-Glo), MDA-MB-231; type: cell-based, Human; settings: Homo sapiens, MDA-MB-231; 72 hours, cellular ATP content; read-out: MDA-MB-231 anti cell proliferation activity (grade)
Experimental: as §1

[2] = Human liver S9 metabolic stability; type: in vitro ADME; settings: for Percentage Remaining %: 1 μM, 37° C.; for metabolic stability compared with LY2606368: human liver S9; for half-life at 1 μM: human liver S9, 1 μM
Experimental: Compounds (1 μM) were incubated with human liver S9 (from BD Gentest) at final liver microsomal protein concentration of 0.5 mg/mL for 0, 5, 15, 30, 45 min at 37° C. The remaining compounds in the reaction were measured by LC-MS/MS. The half-life (T½) 0.693/K (K is the rate constant from a plot of ln [concentration] vs. incubation time).

| Structure (SMILES) | IC50 (HT-29) [µM] | melting point [°C] | IC50 (Chk2) [µM] | IC50 (Chk1) [µM] | IC50 (MDA-MB-231) [µM] | further results |
| --- | --- | --- | --- | --- | --- | --- |
| COc1cc(Cl)cc(OCC2(CN)CC2)c1-c1cc(Nc2cnc(C#N)cn2)n[nH]1 [Compound 14, 5-(5-(2-((1-(Aminomethyl)cyclopropyl)methoxy)-4-chloro-6-methoxyphenyl)-1H-pyrazol-3-ylamino)pyrazine-2-carbonitrile] | 0.01 to 0.05 | 232 to 236 | 0.01 to 0.05 | ≤ 0.001 | 0.01 to 0.05 | AUC(0-inf) [1]: 3.12 µg·h/mL; AUC(0-t) [1]: 3.1 µg·h/mL; clearance [1]: 3.4 L/h/kg; MRT [1]: 4.1 h; half-life [1]: 4 h; Vd ([1]; read-out: Vd): 19.2 L/kg; Vd ([1]; read-out: Vss): 13.9 L/kg; half-life and exposure compared with LY2606368 [1]: longer half-life and higher exposure than LY2606368 |
| COc1cc(Br)cc(OCC2(CN)CC2)c1-c1cc(Nc2cnc(C#N)cn2)n[nH]1 [Compound 15, 5-(5-(2-((1-(Aminomethyl)cyclopropyl)methoxy)-4-bromo-6-methoxyphenyl)-1H-pyrazol-3-ylamino)pyrazine-2-carbonitrile] | 0.01 to 0.05 |  | 0.01 to 0.05 | ≤ 0.001 | 0.01 to 0.05 | Percentage Remaining % ([2]; 0 min): 100.00%; Percentage Remaining % ([2]; 5 min): 94.64%; Percentage Remaining % ([2]; 15 min): 93.89%; Percentage Remaining % ([2]; 30 min): 93.30%; Percentage Remaining % ([2]; 45 min): 87.68%; metabolic stability compared with LY2606368 [2]: more metabolic stable than LY2606368; half-life at 1 μM [2]: 7.99 h; AUC(0-inf) [1]: 4.98 µg·h/mL; AUC(0-t) [1]: 4.89 µg·h/mL; clearance [1]: 3.8 L/h/kg; MRT [1]: 3.8 h; half-life [1]: 7.4 h; Vd ([1]; read-out: Vd): 46.9 L/kg; Vd ([1]; read-out: Vss): 19.2 L/kg; half-life and exposure compared with LY2606368 [1]: longer half-life and higher exposure than LY2606368 |
| COc1cc(F)cc(OCC2(CN)CC2)c1-c1cc(Nc2cnc(C#N)cn2)n[nH]1 [Compound 13, 5-(5-(2-((1-(Aminomethyl)cyclopropyl)methoxy)-4-fluoro-6-methoxyphenyl)-1H-pyrazol-3-ylamino)pyrazine-2-carbonitrile] | ≤ 0.01 | 202 to 206 | 0.01 to 0.05 | ≤ 0.001 | 0.01 to 0.05 | Percentage Remaining % ([2]; 0 min): 100.00%; Percentage Remaining % ([2]; 5 min): 98.69%; Percentage Remaining % ([2]; 15 min): 99.08%; Percentage Remaining % ([2]; 30 min): 96.23%; Percentage Remaining % ([2]; 45 min): 100.18%; metabolic stability compared with LY2606368 [2]: more metabolic stable than LY2606368; half-life at 1 μM [2]: 5 h |
| COc1ccc(F)c(OCCCN)c1-c1cc(Nc2cnc(C#N)cn2)n[nH]1 [Compound 1, 5-(5-(2-(3-Aminopropoxy)-3-fluoro-6-methoxyphenyl)-1H-pyrazol-3-ylamino)pyrazine-2-carbonitrile] | 0.1 to 0.5 | 221 to 224 |  | 0.001 to 0.01 | 0.1 to 0.5 |  |
| CCOC(=O)NCCCOc1cc(F)cc(OC)c1-c1cc(Nc2cnc(C#N)cn2)n[nH]1 [Compound 38, Ethyl 3-(2-(3-(5-cyanopyrazin-2-ylamino)-1H-pyrazol-5-yl)-5-fluoro-3-methoxyphenoxy)propylcarbamate] |  |  |  | 0.01 to 0.05 |  |  |
| COc1cc(OC)c(-c2cc(Nc3cnc(C#N)cn3)n[nH]2)c(OCC2(CN)CC2)c1 [Compound 17, 5-(5-(2-((1-(Aminomethyl)cyclopropyl)methoxy)-4,6-dimethoxyphenyl)-1H-pyrazol-3-ylamino)pyrazine-2-carbonitrile] | ≤ 0.01 | 160 to 164 | 0.01 to 0.05 | 0.001 to 0.01 | 0.01 to 0.05 |  |
| COc1cc(C)cc(OCC2(CN)CC2)c1-c1cc(Nc2cnc(C#N)cn2)n[nH]1 [Compound 16, 5-(5-(2-((1-(Aminomethyl)cyclopropyl)methoxy)-6-methoxy-4-methylphenyl)-1H-pyrazol-3-ylamino)pyrazine-2-carbonitrile] | ≤ 0.01 | 165 to 170 | 0.01 to 0.05 | ≤ 0.001 | 0.01 to 0.05 |  |
| COc1cc(Br)cc(OCCCN)c1-c1cc(Nc2cnc(C#N)cn2)n[nH]1 [Compound 5, 5-(5-(2-(3-Aminopropoxy)-4-bromo-6-methoxyphenyl)-1H-pyrazol-3-ylamino)pyrazine-2-carbonitrile] | 0.01 to 0.05 | 165 to 175 | 0.05 to 0.1 | ≤ 0.001 | 0.05 to 0.1 | AUC(0-inf) [1]: 2.99 µg·h/mL; AUC(0-t) [1]: 2.96 µg·h/mL; clearance [1]: 3.6 L/h/kg; MRT [1]: 2.8 h; half-life [1]: 5.3 h; Vd ([1]; read-out: Vd): 29.5 L/kg; Vd ([1]; read-out: Vss): 10.2 L/kg; half-life and exposure compared with LY2606368 [1]: longer half-life and higher exposure than LY2606368 |
| COc1cc(C)cc(OCCCN)c1-c1cc(Nc2cnc(C#N)cn2)n[nH]1 [Compound 6, 5-(5-(2-(3-aminopropoxy)-6-methoxy-4-methylphenyl)-1H-pyrazol-3-ylamino)pyrazine-2-carbonitrile] | 0.01 to 0.05 | 188 to 191 | 0.05 to 0.1 | ≤ 0.001 | 0.01 to 0.05 |  |
| CNCC1(COc2cc(F)cc(OC)c2-c2cc(Nc3cnc(C#N)cn3)n[nH]2)CC1 [Compound 20, 5-(5-(4-Fluoro-2-methoxy-6-((1-((methylamino)methyl)cyclopropyl)methoxy)phenyl)-1H-pyrazol-3-ylamino)pyrazine-2-carbonitrile] | ≤ 0.01 | 228 to 230 |  | ≤ 0.001 | 0.01 to 0.05 |  |
| COc1cc(OC)c(-c2cc(Nc3cnc(C#N)cn3)n[nH]2)c(OCCCN)c1 [Compound 7, 5-(5-(2-(3-Aminopropoxy)-4,6-dimethoxyphenyl)-1H-pyrazol-3-ylamino)pyrazine-2-carbonitrile] | 0.01 to 0.05 | 145 to 151 | 0.01 to 0.05 | 0.001 to 0.01 | 0.01 to 0.05 |  |
| COc1c(F)ccc(OCCCN)c1-c1cc(Nc2cnc(C#N)cn2)n[nH]1 [Compound 2, 5-((5-(6-(3-aminopropoxy)-3-fluoro-2-methoxyphenyl)-1H-pyrazol-3-yl)amino)pyrazine-2-carbonitrile] | 0.1 to 0.5 | 80 to 84 |  | ≤ 0.001 | 0.1 to 0.5 |  |
| CNCC1(COc2c(F)ccc(OC)c2-c2cc(Nc3cnc(C#N)cn3)n[nH]2)CC1 [Compound 18, 5-(5-(3-fluoro-6-methoxy-2-((1-((methylamino)methyl)cyclopropyl)methoxy)phenyl)-1H-pyrazol-3-ylamino)pyrazine-2-carbonitrile] |  | 213 to 215 |  | 0.001 to 0.01 |  |  |
| CNCC1(COc2ccc(F)c(OC)c2-c2cc(Nc3cnc(C#N)cn3)n[nH]2)CC1 [Compound 19, 5-((5-(3-fluoro-2-methoxy-6-((1-((methylamino)methyl)cyclopropyl)methoxy)phenyl)-1H-pyrazol-3-yl)amino)pyrazine-2-carbonitrile] | 0.05 to 0.1 | 215 to 219 |  | 0.001 to 0.01 | 0.1 to 0.5 |  |
